ChEMBL document CHEMBL5303304, “EUbOPEN Chemogenomics Library - IncuCyte” (2023)

Key:
Format in all cases: toxicity, cell-based
HEK-293T = assay: Incucyte cell viability with HEK293T; conditions: human, 10 µM, compound concentration 10 uM
Fibroblast = assay: Incucyte cell viability with human fibroblast; conditions: 10 µM, compound concentration 10 uM
U2OS = assay: Incucyte cell viability with U2OS; conditions: human, 10 µM, compound concentration 10 uM
Also: unitless GR value; below 1 slowed growth and below 0 cell loss.

Row | Structure (SMILES) | Growth Rate (HEK-293T; 0 h, replicate number 2) | Growth Rate (HEK-293T; 6 h, replicate number 1) | Growth Rate (Fibroblast; 0 h, replicate number 2) | Growth Rate (Fibroblast; 18 h, replicate number 1) | Growth Rate (Fibroblast; 18 h, replicate number 2) | Growth Rate (Fibroblast; 24 h, replicate number 1) | Growth Rate (U2OS; 0 h, replicate number 2) | Growth Rate (U2OS; 6 h, replicate number 2) | Growth Rate (U2OS; 18 h, replicate number 1) | Growth Rate (U2OS; 18 h, replicate number 2) | Growth Rate (HEK-293T; 6 h, replicate number 2) | Growth Rate (HEK-293T; 12 h, replicate number 1) | Growth Rate (HEK-293T; 12 h, replicate number 2) | Growth Rate (HEK-293T; 18 h, replicate number 1) | Growth Rate (HEK-293T; 18 h, replicate number 2) | Growth Rate (HEK-293T; 24 h, replicate number 2) | Growth Rate (Fibroblast; 0 h, replicate number 1) | Growth Rate (U2OS; 0 h, replicate number 1) | Growth Rate (U2OS; 12 h, replicate number 2) | Growth Rate (U2OS; 24 h, replicate number 2) | other results
1 | CN1CCC(C#N)(NC(=O)[C@@H](NC(=O)N2CCOCC2)C(C)(C)C)CC1 | 0.91 | 0.8 | -0.99 | 0.98 | 0.75 | 0.99 | 0.61 | 0.92 | 0.98 | 1 | – | – | – | – | – | – | – | – | – | – | Growth Rate (HEK-293T; 0 h, replicate number 1): 0.92; Growth Rate (Fibroblast; 6 h, replicate number 1): 0.5; Growth Rate (U2OS; 12 h, replicate number 1): 0.98; Growth Rate (U2OS; 24 h, replicate number 1): 0.92
2 | CC[N+](CC)(CC)CCOc1ccc(/C=C/c2ccccc2)cc1.[I-] [STILONIUM IODIDE] | 0.44 | -0.34 | – | 0.28 | 0.62 | – | -0.99 | – | – | 0.93 | 0 | -0.18 | -0.14 | -0.14 | -0.12 | -0.15 | 0.94 | -0.67 | 1 | 0.84 | Growth Rate (HEK-293T; 0 h, replicate number 1): 1; Growth Rate (HEK-293T; 24 h, replicate number 1): -0.22; Growth Rate (Fibroblast; 6 h, replicate number 2): -1; Growth Rate (Fibroblast; 12 h, replicate number 2): 0.37; Growth Rate (Fibroblast; 24 h, replicate number 2): 0.58
3 | CN[C@@H](C)C(=O)N[C@H](C(=O)N1CCC[C@H]1C(=O)N[C@H]1c2ccccc2C[C@H]1OCC#CC#CCO[C@@H]1Cc2ccccc2[C@@H]1NC(=O)[C@@H]1CCCN1C(=O)[C@@H](NC(=O)[C@H](C)NC)C1CCCCC1)C1CCCCC1 | -0.94 | 0.13 | – | 0.75 | 0.57 | 0.63 | – | 0.83 | 0.87 | 0.86 | 0.46 | -0.41 | -0.22 | -0.17 | 0.01 | 0.02 | – | 0.76 | 0.86 | – | Growth Rate (HEK-293T; 24 h, replicate number 1): -0.12; Growth Rate (Fibroblast; 12 h, replicate number 1): 0.87; Growth Rate (Fibroblast; 24 h, replicate number 2): 0.43; Growth Rate (U2OS; 6 h, replicate number 1): 0.89; Growth Rate (U2OS; 24 h, replicate number 1): 0.89
4 | CC(C)(C)c1cnc(CSc2cnc(NC(=O)C3CCNCC3)s2)o1 [BMS-387032] | – | -0.41 | -0.8 | 0.32 | -0.23 | 0.23 | 0.54 | 0.29 | 0.27 | 0.04 | -0.76 | -0.29 | -0.64 | -0.21 | -0.48 | -0.37 | -1 | -1 | 0.05 | -0.1 | Growth Rate (HEK-293T; 24 h, replicate number 1): -0.2; Growth Rate (Fibroblast; 6 h, replicate number 1): 0.49; Growth Rate (Fibroblast; 6 h, replicate number 2): -0.1; Growth Rate (Fibroblast; 12 h, replicate number 1): 0.11; Growth Rate (Fibroblast; 12 h, replicate number 2): -0.28; Growth Rate (Fibroblast; 24 h, replicate number 2): -0.26; Growth Rate (U2OS; 6 h, replicate number 1): 0.69; Growth Rate (U2OS; 12 h, replicate number 1): 0.45; Growth Rate (U2OS; 24 h, replicate number 1): 0.05
5 | O=C(O)CCCCCC[C@@H]1C(=O)NC(=O)N1CCC(O)C1CCCCC1 (stereo not given in full) | 0.52 | – | 0.52 | 0.69 | – | 0.75 | – | 0.99 | – | 0.87 | – | – | – | – | – | – | -0.99 | 0.14 | 0.93 | 0.92 | Growth Rate (HEK-293T; 0 h, replicate number 1): -0.07; Growth Rate (Fibroblast; 6 h, replicate number 1): -0.07; Growth Rate (Fibroblast; 12 h, replicate number 1): 0.61; Growth Rate (U2OS; 6 h, replicate number 1): 0.54
6 | O=C(Nc1cc(C(F)(F)F)cc(C(F)(F)F)c1)c1cc(Cl)ccc1O [IMD-0354] | – | 0.18 | -0.02 | -0.63 | -0.45 | 0.42 | -1 | -0.23 | 0.69 | 0.18 | -0.86 | 0.81 | -0.2 | 0.76 | 0.17 | 0.36 | -0.62 | -0.14 | 0.03 | 0.26 | Growth Rate (Fibroblast; 6 h, replicate number 2): -1; Growth Rate (Fibroblast; 12 h, replicate number 2): -0.61; Growth Rate (Fibroblast; 24 h, replicate number 2): -0.33; Growth Rate (U2OS; 6 h, replicate number 1): 0.76; Growth Rate (U2OS; 12 h, replicate number 1): 0.7; Growth Rate (U2OS; 24 h, replicate number 1): 0.71
7 | CC(C)(C)c1ccc2c(c1)CC[C@H]2NC(=O)Nc1cccc2[nH]ncc12 [ABT-102] | 1 | 0.75 | 0.41 | – | – | 0.79 | -0.93 | – | – | 0.91 | 0.6 | 0.26 | 0.71 | 0.39 | 0.54 | 0.48 | 0.1 | – | 0.84 | 0.9 | Growth Rate (HEK-293T; 24 h, replicate number 1): 0.22; Growth Rate (Fibroblast; 12 h, replicate number 1): -0.95
